This is an account of results in patent US9101611B1, “Use of sulfonylurea (Glimepiride) to lower blood glucose” (priority 2014, dated 2015).

This experiment is described as follows: Stopping Glimepiride tablets after secondary failure, then resuming; effect on blood glucose. Type of experiment: in vivo, human. The conditions noted are these: then resumed. From the text:
From new research, I found a new usage of sulfonylurea drug Glimepiride when secondary failure occurs. […] It is likely that recovery works because stopping taking the drug fools the human body to assume like the first day taking it which it is claimed.
Since pre-diabetes and/or diabetes have used sulfonylurea drugs since the mid-1950s (1), there is no new matter or invention of sulfonylurea drugs in this patent application. The newness in this patent application is the usage of sulfonylurea drug like Glimepiride that fails to work when secondary failure occurs by stopping taking the tablet for 3 or 5 days which automatically also lower blood glucose and then resuming taking it that works like the first day taking it. In essence, it prevents the patient from taking more dosage of medication and/or changing to another different medication.

`CCC1=C(C)CN(C(=O)NCCc2ccc(S(=O)(=O)NC(=O)N[C@H]3CC[C@H](C)CC3)cc2)C1=O` [Glimepiride]: under “tablets stopped for 3 days”, the “effectiveness to lower blood glucose” value was “recovers Glimepiride's effectiveness to lower blood glucose like the first day taking it”. Moreover, where the note is “tablets stopped for 5 days”, the recovery effectiveness result is listed as “recovery effectiveness was first detected”.
